In patent US20230286970A1, “NOVEL OXADIAZOLE-BASED SELECTIVE HDAC6 INHIBITORS” (ITALFARMACO S.P.A., priority 2020, published 2023):

Assays:
recombinant human HDAC1 = recombinant human HDAC1 (Homo sapiens (Human), UniProt Q13547); assay: Enzymatic screening, HDAC1 inhibition (fluorogenic FdL_G substrate); format: biochemical
Procedure, shortened: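 Recombinant human HDAC1 inhibition was measured fluorometrically using the FLUOR DE LYS-Green (FdL_G) substrate. Compounds at 8 doses (1% DMSO final) in Tris-HCl pH 8 buffer with NaCl, Tween-20 and glycerol were preincubated in triplicate with enzyme and 1 mg/mL BSA, then given substrate. Developer I plus 2 μM TSA was added, and fluorescence read after 25 minutes in the dark.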

[1] = Stability to Phase I metabolism in human S9 liver fraction; conditions: after 90 minutes, 37° C.
[2] = Stability to Phase I metabolism in rat S9 liver fraction; conditions: after 90 minutes, 37° C.
Method: Test compounds were incubated in rat and human liver S9 fraction at 37° C. up to 90 minutes in order to evaluate their stability to Phase I metabolism by hepatic enzymes. Each test compound was incubated at μM concentration (50 μM when the samples were analysed by UV/HPLC, 1 or 2 μM when the samples were analysed by LC-MS/MS) with S9 fraction (protein content 2 mg/m L) in 100 mM phosphate buffer (pH 7.4), 3.3 mM MgCl2 and 1.3 mM NADPH for 0, 10, 30, 60 and 90 minutes at 37° C. in a thermostated oscillating bath. The reaction was stopped placing samples on ice bath and adding acidified acetonitrile. After centrifugation (10 minutes at 14000 rpm) an aliquot of the supernatant was diluted with water, filtered with 0.45 μm regenerated cellulose syringe filters and injected in HPLC-UV or in LC-MS/MS. The percentage of the remaining amount at the various incubation times with respect to the initial amount were calculated.

[3] = Stability in human plasma; conditions: after 4 hours, 37° C.
recombinant human HDAC6 = recombinant human HDAC6 (Homo sapiens (Human), UniProt Q9UBN7); assay: Enzymatic screening, HDAC6 inhibition (fluorogenic FdL_G substrate); format: biochemical
Sequence of recombinant human HDAC6 (Q9UBN7 whole entry): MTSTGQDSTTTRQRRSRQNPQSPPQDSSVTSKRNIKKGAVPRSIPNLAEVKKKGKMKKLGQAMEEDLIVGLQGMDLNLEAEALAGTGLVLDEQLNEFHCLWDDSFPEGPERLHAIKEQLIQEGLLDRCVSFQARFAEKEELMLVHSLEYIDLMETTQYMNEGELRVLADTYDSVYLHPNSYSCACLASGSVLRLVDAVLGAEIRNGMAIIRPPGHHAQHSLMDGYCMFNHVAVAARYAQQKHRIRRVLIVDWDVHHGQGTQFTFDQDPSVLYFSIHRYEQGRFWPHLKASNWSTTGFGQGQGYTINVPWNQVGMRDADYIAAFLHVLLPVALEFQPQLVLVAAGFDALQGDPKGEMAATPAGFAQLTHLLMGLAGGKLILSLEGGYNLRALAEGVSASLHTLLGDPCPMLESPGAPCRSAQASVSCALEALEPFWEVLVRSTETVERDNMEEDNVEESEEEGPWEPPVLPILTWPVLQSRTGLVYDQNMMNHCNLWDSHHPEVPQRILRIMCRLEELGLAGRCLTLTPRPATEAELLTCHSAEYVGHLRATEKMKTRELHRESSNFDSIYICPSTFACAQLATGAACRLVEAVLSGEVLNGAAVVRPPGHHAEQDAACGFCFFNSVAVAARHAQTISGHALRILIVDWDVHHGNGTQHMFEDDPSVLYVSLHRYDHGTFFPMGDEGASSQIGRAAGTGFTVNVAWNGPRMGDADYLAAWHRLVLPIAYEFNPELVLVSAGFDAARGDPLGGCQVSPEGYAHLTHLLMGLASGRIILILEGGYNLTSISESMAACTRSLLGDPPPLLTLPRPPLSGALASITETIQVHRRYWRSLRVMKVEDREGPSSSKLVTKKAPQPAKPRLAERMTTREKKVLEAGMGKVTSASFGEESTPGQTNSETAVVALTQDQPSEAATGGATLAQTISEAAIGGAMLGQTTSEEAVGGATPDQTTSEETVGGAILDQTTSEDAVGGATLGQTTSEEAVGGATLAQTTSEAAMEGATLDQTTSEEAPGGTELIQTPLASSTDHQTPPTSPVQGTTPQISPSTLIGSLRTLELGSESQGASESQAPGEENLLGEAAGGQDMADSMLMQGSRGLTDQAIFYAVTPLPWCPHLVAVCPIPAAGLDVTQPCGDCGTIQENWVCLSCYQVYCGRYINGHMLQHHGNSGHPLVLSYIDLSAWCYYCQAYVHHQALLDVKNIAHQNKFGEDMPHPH
Procedure, shortened: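 Enzyme was preincubated with compound (8 doses, triplicate, 1% DMSO) in 25 mM Tris-HCl pH 8, 130 mM NaCl, 0.05% Tween-20, 10% glycerol, with BSA. A FLUOR DE LYS-Green substrate was then added, and fluorescence was read after developer plus 2 μM TSA.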

Stability in rat plasma = conditions: after 4 hours, 37° C.
Method: In order to evaluate the stability to circulating enzymes, test compounds were incubated in human and rat plasma at 37° C. in a thermostated oscillating bath. Each test compound was incubated at μM concentration (50 μM when the samples were analysed by UV/HPLC, 1 or 2 μM when the samples were analysed by LC-MS/MS) for 0, 15, 30 minutes and 1, 2 and 4 hours. The reaction was stopped placing samples on ice bath and adding acidified acetonitrile. After centrifugation (10 minutes at 14000 rpm) an aliquot of the supernatant was diluted with water, filtered with 0.45 μm regenerated cellulose syringe filters and injected in HPLC-UV or in LC-MS/MS. The percentage of the remaining amount at the various incubation times with respect to the initial amount were calculated. The half-life in plasma was also calculated.

[4] = test system: α-tubulin acetylation in 697 cell line; assay: In vitro α-tubulin acetylation in 697 cell line (ELISA); format: cell-based; conditions: 16 hours, read-out: fold increase @ 1 uM TubAc (ratio of acetylated tubulin and total tubulin towards control)
Method: The in vitro α-tubulin acetylation determination was evaluated on B 697 promyelocytic cell line.
The test molecules were diluted from 20 mM stock solution in DMSO with RPMI 10% FCS+0.01% DMSO medium at 20× concentration compared to the final concentration, added to the cells (15×10^6 cells in a total volume of 30 mL in RPMI medium 10% FCS+0.01% DMSO) to obtain the final concentrations of 1000, 333, 111, 37 nM and incubated at 37° C., 5% CO2 for 16 hours.
At the end of the incubation period, 5×10^6 cells were taken from each sample, centrifuged for 5 minutes at 1100 rpm and washed in 0.9% NaCl at 4° C. The resulting pellet was lysed by treating at 4° C. for 30 minutes with 150 μl of Complete Lysis-M buffer containing protease inhibitors (Complete Lysis-M Roche+Complete Tablets, Mini Easypack, cat: 4719956001) and phosphatase inhibitor cocktails (PhosStop Easypack, Roche, cat: 4906837001), then centrifuged 10 minutes at 14,000 rpm (20817×g). 0.3 μg of supernatant (total protein extract) were diluted in 100 μl of 1×PBS and immobilized in Maxisorp F96 NUN-IMMUNO Plate (Nunc MaxiSorp flat-bottom, Nunc, cat: 442404) at room temperature overnight. Plates were washed twice with Wash Buffer (PBS1×+0.005% tween 20) and saturated for 1 hour at room temperature with 300 μL of 1×PBS containing 10% FCS. After washing twice with Wash Buffer, the plates were incubated for two hours at room temperature in the presence of anti-acetylated-α-tubulin antibody (Monoclonal Anti-acetylated-tubulin clone 6-11B-1, mouse ascites fluid, Sigma, cat: T6793), 100 μl/well diluted 1:1000 in 1×PBS containing 10% FCS) or with total anti-α-tubulin antibody (Monoclonal Anti-alpha-tubulin produced in mouse, Sigma, cat: T6074). Following washing of the pates 5 times with Wash Buffer the secondary antibody conjugated with the enzyme HRP (Goat anti-Mouse IgG, IgM, IgA (H+L), Thermo Fisher Scientific, cat: A10668), diluted 1:1000 in 1×PBS+10% FBS was added at the volume of 100 μl/well.
After washing 4 times, 100 μl/well of TMB substrate kit was added for 10 minutes at room temperature in the dark. The reaction was stopped by adding 50 μl of 2N H2SO4. The plates were read at Multiskan Spectrum spectrophotometer at a wavelength of 450 nm.
The degree of acetylation was calculated by dividing the absorbance obtained for acetylated α-tubulin by the absorbance of total tubulin.
The results of tubulin acetylation, expressed as fold increase of ratio of acetylated α-tubulin/total α-tubulin, of each sample relative to the control sample (untreated) are summarized in table 6.

Sequence of recombinant human HDAC1 (Q13547 whole entry): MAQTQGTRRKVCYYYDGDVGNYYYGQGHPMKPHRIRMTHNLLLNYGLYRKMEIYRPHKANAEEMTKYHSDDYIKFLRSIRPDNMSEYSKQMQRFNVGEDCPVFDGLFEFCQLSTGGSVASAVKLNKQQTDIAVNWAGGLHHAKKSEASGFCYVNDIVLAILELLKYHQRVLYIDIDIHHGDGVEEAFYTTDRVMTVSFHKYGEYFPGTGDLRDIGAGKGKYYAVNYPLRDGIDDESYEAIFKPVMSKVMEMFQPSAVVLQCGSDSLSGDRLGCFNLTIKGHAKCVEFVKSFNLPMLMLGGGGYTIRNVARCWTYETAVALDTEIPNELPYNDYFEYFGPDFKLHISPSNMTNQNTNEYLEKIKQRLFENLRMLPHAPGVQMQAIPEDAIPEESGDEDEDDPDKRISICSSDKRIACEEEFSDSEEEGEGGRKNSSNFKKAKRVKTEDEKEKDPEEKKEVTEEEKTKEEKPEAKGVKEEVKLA

Compound | IC50 (recombinant human HDAC1) [µM] | residual percentage in HUMAN S9 FRACTION [1] [%] | residual percentage in RAT S9 FRACTION [2] [%] | residual percentage in HUMAN PLASMA [3] [%] | IC50 (recombinant human HDAC6) [nM] | residual percentage in RAT PLASMA (Stability in rat plasma) [%] | fold induction at 1 µM [4]
C[C@@H](c1ccc(-c2nnc(C(F)F)o2)cc1)n1cc(-c2cccc(NC(=O)N3CCOCC3)c2)nn1 (stereo in doubt) [compound 104, N-(3-(1-(1-(4-(5-(difluoromethyl)-1,3,4-oxadiazol-2-yl)phenyl)ethyl)-1H-1,2,3-triazol-4-yl)phenyl)morpholine-4-carboxamide] | > 200 | 86 | 78 | 92 | 40 | 87 | 15
C[C@H](c1ccc(-c2nnc(C(F)F)o2)cn1)n1cc(-c2ccc(N)nc2)nn1 [Compd. 32, (R)-5-(1-(1-(5-(5-(difluoromethyl)-1,3,4-oxadiazol-2-yl)pyridin-2-yl)ethyl)-1H-1,2,3-triazol-4-yl)pyridin-2-amine] | > 200 | 97 | 91 | 97 | 14 | 67 | 31
CN1CCN(C(=O)Nc2cccc(-c3cn(Cc4ccc(-c5nnc(C(F)F)o5)cn4)nn3)c2)CC1 [Compd. 51, N-(3-(1-((5-(5-(difluoromethyl)-1,3,4-oxadiazol-2-yl)pyridin-2-yl)methyl)-1H-1,2,3-triazol-4-yl)phenyl)-4-methylpiperazine-1-carboxamide] | > 200 | 90 | 62 | 90 | 22 | 79 | 26
Nc1nc2ccc(-c3cn(Cc4ccc(-c5nnc(C(F)F)o5)cc4)nn3)cc2s1 [compound 14, 6-(1-(4-(5-(difluoromethyl)-1,3,4-oxadiazol-2-yl)benzyl)-1H-1,2,3-triazol-4-yl)benzo[d]thiazol-2-amine] |  | 93 | 95 | 72 |  | 83 | 19
Nc1ccc(-c2cn(Cc3ccc(-c4nnc(C(F)F)o4)c(F)c3)nn2)cn1 [compound 15, 5-(1-(4-(5-(difluoromethyl)-1,3,4-oxadiazol-2-yl)-3-fluorobenzyl)-1H-1,2,3-triazol-4-yl)pyridin-2-amine] |  | 91 | 79 | 81 |  | 72 | 16
NC(=O)c1cccc(-c2nnn(Cc3ccc(-c4nnc(C(F)F)o4)cn3)n2)c1 [compound 29, 3-(2-((5-(5-(difluoromethyl)-1,3,4-oxadiazol-2-yl)pyridin-2-yl)methyl)-2H-tetrazol-5-yl)benzamide] |  |  |  |  |  |  | 15
FC(F)c1nnc(-c2ccc(Cn3nnc(-c4csc5ccccc45)n3)cc2)o1 [compound 207, 2-(4-((5-(benzo[b]thiophen-3-yl)-2H-tetrazol-2-yl)methyl)phenyl)-5-(difluoromethyl)-1,3,4-oxadiazole] | 999 | 72 | 0 | 91 | 129 | 70 | 
Nc1ccc(-c2cnn(Cc3ccc(-c4nnc(C(F)F)o4)cc3)c2)cn1 [compound 211, 5-(1-(4-(5-(difluoromethyl)-1,3,4-oxadiazol-2-yl)benzyl)-1H-pyrazol-4-yl)pyridin-2-amine] | > 200 | 63 | 80 | 91 | 147 | 89 | 
CCCCC(c1ccc(-c2nnc(C(F)F)o2)cc1)n1cc(-c2ccc(N)nc2)nn1 (stereo not drawn) [compound 235, 5-(1-(1-(4-(5-(difluoromethyl)-1,3,4-oxadiazol-2-yl)phenyl)pentyl)-1H-1,2,3-triazol-4-yl)pyridin-2-amine] | > 200 | 92 | 63 | 90 | 202 | 84 | 
Nc1ccc(-c2nc(Cc3ccc(-c4nnc(C(F)F)o4)cc3)no2)cn1 [compound 247, 5-(3-(4-(5-(difluoromethyl)-1,3,4-oxadiazol-2-yl)benzyl)-1,2,4-oxadiazol-5-yl)pyridin-2-amine] | > 200 | 98 | 65 | 99 | 272 | 81 | 

Continued, in another order:

IC50 (recombinant human HDAC1) [µM] | residual percentage in HUMAN S9 FRACTION [1] [%] | residual percentage in RAT S9 FRACTION [2] [%] | residual percentage in HUMAN PLASMA [3] [%] | IC50 (recombinant human HDAC6) [nM] | residual percentage in RAT PLASMA (Stability in rat plasma) [%] | Compound | fold induction at 1 µM [4]
> 200 | 95 | 97 | 83 | 11 | 83 | O=C1Nc2ccc(-c3cn(Cc4ccc(-c5nnc(C(F)F)o5)cn4)nn3)cc2C12CCNC2 (single isomer, unassigned) [compound 274, 5-(1-((5-(5-(difluoromethyl)-1,3,4-oxadiazol-2-yl)pyridin-2-yl)methyl)-1H-1,2,3-triazol-4-yl)spiro[indoline-3,3′-pyrrolidin]-2-one] | 12
> 200 | 88 | 89 | 91 | 293 | 82 | CCC[C@@H](c1ccc(-c2nnc(C(F)F)o2)cc1)n1cc(-c2ccc(N)nc2)nn1 [compound 250, (S)-5-(1-(1-(4-(5-(difluoromethyl)-1,3,4-oxadiazol-2-yl)phenyl)butyl)-1H-1,2,3-triazol-4-yl)pyridin-2-amine] | 
> 200 | 93 | 92 | 80 | 19 | 94 | O=C(Nc1cccc(-c2cn(Cc3ccc(-c4nnc(C(F)F)o4)cn3)cn2)c1)N1CCOCC1 [compound 264, N-(3-(1-((5-(5-(difluoromethyl)-1,3,4-oxadiazol-2-yl)pyridin-2-yl)methyl)-1H-imidazol-4-yl)phenyl)morpholine-4-carboxamide] | 
> 200 | 81 | 69 | 80 | 15 | 71 | FC(F)c1nnc(-c2ccc(Cn3cc(-c4ccc(NC5=NCCN5)cc4)cn3)cc2)o1 [compound 269, N-(4-(1-(4-(5-(difluoromethyl)-1,3,4-oxadiazol-2-yl)benzyl)-1H-pyrazol-4-yl)phenyl)-4,5-dihydro-1H-imidazol-2-amine] | 
> 200 | 54 | 9 | 78 | 355 | 86 | FC(F)c1nnc(-c2ccc(Cn3nnnc3-c3csc4ccccc34)cc2)o1 [compound 288, 2-(4-((5-(benzo[b]thiophen-3-yl)-1H-tetrazol-1-yl)methyl)phenyl)-5-(difluoromethyl)-1,3,4-oxadiazole] | 
